According to US11819578B2, “Nanofiber scaffolds” (Trustees of Boston University, priority 2021, dated 2023):

Experiments:
[1] = cited from earlier work
[2] = Release of small molecule cargo loaded in the PCL fibers; assay type: physicochemical
Experimental: FIG. 21 depicts FITC (50-500 ng) released from the fibers over the course of 90 days. FITC was loaded in the mixture of the PCL solution similar to grazoprevir loaded meshes. (n=4)
Doxorubicin was loaded in the mixture of the PCL solution similar to grazoprevir loaded meshes. (n=3)
When used with primary CD8+ HER2-targeted NS3 CAR T cells with the same grazoprevir-dependent CARs, the […] were excited (CD69 expression) when co-cultured with the meshes and HER2-expression NALM6 cells (FIG. 19).
The meshes ability to release doxorubicin over time was characterized as a functional delivery method for chemotherapeutic drugs.

Row | period of release from the fibers ([2]; 500 ug doxorubicin loaded in the PCL solution, n=3) [days] | release over time in vitro ([2]; in vitro, in words) | period of release from the fibers ([2]; FITC 50-500 ng loaded in the PCL solution, n=4) [days] | SMILES | log P [1]
1 |  |  |  | C=C[C@@H]1C[C@]1(NC(=O)[C@@H]1C[C@@H]2CN1C(=O)[C@H](C(C)(C)C)NC(=O)O[C@@H]1C[C@H]1CCCCCc1nc3ccc(OC)cc3nc1O2)C(=O)NS(=O)(=O)C1CC1.O [grazoprevir] | 4.7
2 | 28 | several weeks to months |  | COc1cccc2c1C(=O)c1c(O)c3c(c(O)c1C2=O)C[C@@](O)(C(=O)CO)C[C@@H]3O[C@H]1C[C@H](N)[C@H](O)[C@H](C)O1 [doxorubicin] | 
3 |  |  | 90 | O=C1OC2(c3ccc(O)cc3Oc3cc(O)ccc32)c2ccc(N=C=S)cc21 [FITC] | 4.8
